Earlier results in patent publication US20030072777A1, “Combinatorial anti-acne compositions” (priority 2001, published 2003).
Read-outs that look alike come from different tables or passages of the source.

Legend:
[1] = tested on: inflammatory lesions and comedones of acne vulgaris
[2] = tested on: P. acnes; conditions: 5 percent benzoyl peroxide two times daily for five days
[3] = tested on: sebaceous glands; conditions: retinoid treatment

| SMILES | Average percent reduction of non-inflamed lesions (mean comedone counts) ([1]; Week 2, data from Chalker et al. FIG. 1) | Average percent reduction of inflamed lesions (mean inflammatory lesion counts) ([1]; Week 2, data from Chalker et al. FIG. 4) | Average percent reduction of non-inflamed lesions (mean comedone counts) ([1]; Week 4, data from Chalker et al. FIG. 1) | Average percent reduction of inflamed lesions (mean inflammatory lesion counts) ([1]; Week 4, data from Chalker et al. FIG. 4) | Average percent reduction of non-inflamed lesions (mean comedone counts) ([1]; Week 6, data from Chalker et al. FIG. 1) | Average percent reduction of inflamed lesions (mean inflammatory lesion counts) ([1]; Week 6, data from Chalker et al. FIG. 4) | Reduction of P. acnes population [2] | Shrinkage of the glands [3] |
| --- | --- | --- | --- | --- | --- | --- | --- | --- |
| O=C(OOC(=O)c1ccccc1)c1ccccc1 [5.0% Benzoyl peroxide, Benzoyl peroxide] | 12% | 27% | 15% | 21% | 28% | 46% | more than 95% |  |
| CC1=C(/C=C/C(C)=C/C=C/C(C)=C\C(=O)O)C(C)(C)CCC1 [isotretinoin, 13-cis retinoic acid] |  |  |  |  |  |  |  | about 90% |
